Data from US11116811B2, “Pharmaceutical composition comprising refined indigo naturalis extracts and the use thereof” (Galderma S.A., priority 2015, dated 2021).
Values after ≈ are worked out from the molar mass of the structure shown.

Legend:
[1] = test system: IL-22 induced psoriasis-like mouse models; test: IL-22 induced psoriasis-like mouse model, ear thickness; format: in vivo, BABL/c mice; design: AUC of ear thickness: unit not given here
Method: • BABL/c mice, male, body weight 19-22 g, purchased from Shanghai SLC AnimalCenter. • Room temperature: 24±1° C. • Room relative humidity: 40-70% • Light cycle: Fluorescent light for 12-hour light (8:00-20:00) 12-hour dark • Animal hosting: 4 mice/cage • Food: Free access to food (irradiated, Shanghai SLAC Laboratory Animal Co. Ltd., China) • Water: Free access to tap water from local supply (first filtered by Molanimal ultrapure water machine from the municipal water supply) Instruments • MJ Research PTC-200 Peltier Thermal cycler (Alpha Unit™ Block Assembly for PTC DNA Engine™ systems) • Applied Biosystems 7500 realtime PCR system • Digimatic micrometer caliper: Mitutoyo, Japan. Accuracy: 0.001 mm Reagents • Recombinant mouse IL-22 (rmIL-22), Novoprotein (sinobio), Cat. C047, Lot. 0375351 • High capacity cDNA Reverse Transcription kit, Applied Biosystems, Part No.: 4368813, Lot: 0909069 • Thermo Scientific ABsolute SYBR Green Rox Mix, Thermo Scientific, Cat: AB-1163/A, Lot: 0911/16 Positive Control • Protopic® (tacrolimus, FK506), 0.1% ointment, Astellas Toyama Co., Ltd. Toyama Plant, H20100079, Lot: 028680. Dosing Regimen
Different concentrations of test samples, vehicle, or 0.1% of FK506 ointment, were topically administrated at 1% one hour after the induction of model and then given daily from day 1 to day 11, twice a day. The first day of administration of a test article was regarded as day 0.
Topical application, b.i.d.
Intradermal injection of 20 μL PBS, either alone or containing 100 or 500 ng recombinant mouse IL-22 (eBiosience), was administered into the ears of anesthetized mice using a 30-gauge needle every other day for eleven days. Ear thicknesses were measured before injection on day 0 and thereafter on days without injections. Ear measurements were taken at the center of the ears using a digimatic micrometer caliper (Mitutoyo).
Twenty-four hours after the last IL-22 treatment, mice were sacrificed, and ears were collected for further analysis.
Results of ear thickness data were expressed as mean±S. E. M. AUC of ear swelling was calculated by the ear thickness data from day 0 to day 11, and analyzed by repeated-measured ANOVA methods with IMP® software. Cytokine protein and gene expression data were evaluated with a one-way ANOVA and followed by student's t-test for post-hoc analysis. (Significance level was set at p<0.05).

[2] = test system: NFκB; test: TNFα-induced NFκB activation reporter assay in 293/NFκB-Luc cells; format: cell-based; conditions: Homo sapiens; TNFα-stimulated 293/NFκB-Luc, luciferase; replicate values separated by /; read-out: pro-inflammatory cytokine production IC50 (NFKB)
Method: Cell lysates were prepared by removing media and adding lysis buffer. 5× volume Luciferase Assay Reagent was added to each well prior to read plate. Luminescence was recorded using Perkin-Elmer Victor III plate reader (Perkin-ElmerLife Sciences, Boston, Mass., USA).
All IC50 values were determined by using Xlfit™ software (version 2.0) from ID Business Solutions (Guildford, UK). Background was defined in culture with cells treated with DMSO only and was subtracted for IC50 calculations.

[3] = study 1, IL-22 100 ng in 20 μL i.d.
[4] = study 1, IL-22 500 ng in 20 μL i.d.

With `C=CC[C@@H]1/C=C(\C)C[C@H](C)C[C@H](OC)[C@H]2O[C@@](O)(C(=O)C(=O)N3CCCC[C@H]3C(=O)O[C@H](/C(C)=C/[C@@H]3CC[C@@H](O)[C@H](OC)C3)[C@H](C)[C@@H](O)CC1=O)[C@H](C)C[C@@H]2OC` [FK506, tacrolimus] the “AUC of ear thickness” value ([1]; study 2, 0.1% topical b.i.d.) was 403, the “ear thickness on day 11” value ([1]; study 2, 0.1% topical b.i.d.) was 256.8 ± 3.5 μm and the “inhibition of AUC of ear thickness” value ([1]; study 2, 0.1% topical b.i.d.) was 79.2%. For the same molecule, the “AUC of ear thickness” value ([1]; study 3, 0.1% topical b.i.d.) was 369, the “ear thickness on day 11” value ([1]; study 3, 0.1% topical b.i.d.) was 278.8 ± 5.0 μm and the “inhibition of AUC of ear thickness” value ([1]; study 3, 0.1% topical b.i.d.) was 81.3%. The “AUC of ear thickness” value ([1]; study 4, 0.1% topical b.i.d.) was 446, the “ear thickness on day 11” value ([1]; study 4, 0.1% topical b.i.d.) was 260.4 ± 4.5 μm and the “inhibition of AUC of ear thickness” value ([1]; study 4, 0.1% topical b.i.d.) was 80.4%. For the same molecule, the “AUC of ear thickness” value ([1]; study 5, 0.1% topical b.i.d.) was 454, the “ear thickness on day 11” value ([1]; study 5, 0.1% topical b.i.d.) was 263.4 ± 6.3 μm and the “inhibition of AUC of ear thickness” value ([1]; study 5, 0.1% topical b.i.d.) was 70.4%.

Work on `C=C1CC[C@@H]2[C@](C)(CO)[C@H](O)CC[C@@]2(C)[C@@H]1C/C=C1/C(=O)OC[C@H]1O` [LGT, Andrographolide] yielded an IC50 [2] of 0.45 ng/mL (≈ 1.28 nM).

B1: IL-22: Recombinant mouse IL-22, injected intradermally into ears to induce the psoriasis-like model (protein, UniProt Q9JJY9 34-179, looked up)
Interleukin-22: LPVNTRCKLEVSNFQQPYIVNRTFMLAKEASLADNNTDVRLIGEKLFRGVSAKDQCYLMKQVLNFTLEDVLLPQSDRFQPYMQEVVPFLTKLSNQLSSCHISGDDQNIQKNVRRLKETVKKLGESGEIKAIGELDLLFMSLRNACV
In the case of B1, the “AUC of ear thickness” value [1, 3] is reported as 590, the “ear thickness on day 11” value [1, 3] is reported as 248.3 ± 1.9, μm and the “ear thickness (d15)” value ([1]; study 1, IL-22 100 ng in 20 μL i.d., d15) is reported as 255.3 ± 15.1 μm. The “AUC of ear thickness” value [1, 4] was 1055, the “ear thickness on day 11” value [1, 4] was 311.3 ± 18.0, μm and the “ear thickness, second value” ([1]; study 1, IL-22 500 ng in 20 μL i.d., second value (day not given)) was 296.3 ± 5.0 μm.
